How the values were obtained:
Format in all cases: in vivo
[1] = tested on: barnyardgrass (Echinochloa crus-galli); experiment: Test A preemergence, barnyardgrass; settings: Preemergence; for Plant response rating, Barnyardgrass: 0 to 100 scale (0 no effect, 100 complete control); for Barnyardgrass plant response rating: visual injury on 0 to 100 scale (0 no effect, 100 complete control), approximately 10 days
Outline: (§1)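 Compounds in non-phytotoxic solvent with surfactant. Soil: loam/sand. Preemergence via directed soil spray after seeding; postemergence on seedlings 2–10 cm, one- to two-leaf.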

kochia (Bassia scoparia) [2] = experiment: Test A preemergence, kochia; settings: Preemergence; for Plant response rating, Kochia: 0 to 100 scale (0 no effect, 100 complete control); for Kochia plant response rating: visual injury on 0 to 100 scale (0 no effect, 100 complete control), approximately 10 days
Outline: as §1

[3] = tested on: ragweed (common ragweed, Ambrosia artemisiifolia); experiment: Test A preemergence, ragweed; settings: Preemergence; for Plant response rating, Ragweed: 0 to 100 scale (0 no effect, 100 complete control); for Ragweed plant response rating: visual injury on 0 to 100 scale (0 no effect, 100 complete control), approximately 10 days
Outline: as §1

[4] = tested on: Ryegrass, Italian (Italian ryegrass, Lolium multiflorum); experiment: Test A preemergence, Ryegrass, Italian; settings: Preemergence; for Plant response rating, Ryegrass, Italian: 0 to 100 scale (0 no effect, 100 complete control); for Ryegrass, Italian plant response rating: visual injury on 0 to 100 scale (0 no effect, 100 complete control), approximately 10 days
Outline: as §1

[5] = tested on: Foxtail, Giant (giant foxtail, Setaria faberi); experiment: Test A preemergence, Foxtail, Giant; settings: Preemergence; for Plant response rating, Foxtail, Giant: 0 to 100 scale (0 no effect, 100 complete control); for Foxtail, Giant plant response rating: visual injury on 0 to 100 scale (0 no effect, 100 complete control), approximately 10 days
Outline: as §1

[6] = tested on: pigweed (Amaranthus retroflexus); experiment: Test A preemergence, pigweed; settings: for Plant response rating, Pigweed: 0 to 100 scale (0 no effect, 100 complete control); for Pigweed plant response rating: visual injury on 0 to 100 scale (0 no effect, 100 complete control), approximately 10 days
Outline: (§2)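 Seeds are sown in loam mixed with sand and sprayed on the soil surface right after planting for the preemergence test. Postemergence pots are sprayed once seedlings reach 2 to 10 cm at the one- to two-leaf stage. The same surfactant-containing, non-phytotoxic solvent formulation serves both.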

[7] = tested on: barnyardgrass (Echinochloa crus-galli); experiment: Test A postemergence, barnyardgrass; settings: Postemergence, 0 to 100 scale (0 no effect, 100 complete control); for Barnyardgrass plant response rating: visual injury vs untreated controls after approx. 10 days
Outline: as §2

kochia (Bassia scoparia) [8] = experiment: Test A postemergence, kochia; settings: Postemergence; for Kochia plant response rating: visual injury vs untreated controls after approx. 10 days
Outline: as §1

[9] = tested on: ragweed (common ragweed, Ambrosia artemisiifolia); experiment: Test A postemergence, ragweed; settings: Postemergence; for Ragweed plant response rating: visual injury vs untreated controls after approx. 10 days
Outline: as §1

[10] = tested on: Ryegrass, Italian (Italian ryegrass, Lolium multiflorum); experiment: Test A postemergence, Ryegrass, Italian; settings: Postemergence; for Ryegrass, Italian plant response rating: visual injury vs untreated controls after approx. 10 days
Outline: as §1

[11] = tested on: Foxtail, Giant (giant foxtail, Setaria faberi); experiment: Test A postemergence, Foxtail, Giant; settings: Postemergence; for Foxtail, Giant plant response rating: visual injury vs untreated controls after approx. 10 days
Outline: as §1

[12] = tested on: pigweed (Amaranthus retroflexus); experiment: Test A postemergence, pigweed; settings: Postemergence; for Pigweed plant response rating: visual injury vs untreated controls after approx. 10 days
Outline: as §1

[13] = tested on: wheat (Triticum aestivum); experiment: Test A postemergence, wheat; settings: Postemergence; for Wheat plant response rating: visual injury vs untreated controls after approx. 10 days
Outline: as §2

corn (Zea mays) = experiment: Test A postemergence, corn; settings: Postemergence; for Corn plant response rating: visual injury vs untreated controls after approx. 10 days
Outline: as §1

[14] = tested on: blackgrass (Alopecurus myosuroides); experiment: Test A postemergence, blackgrass; settings: Postemergence, 0 to 100 scale (0 no effect, 100 complete control); for Blackgrass plant response rating: visual injury vs untreated controls after approx. 10 days
Outline: as §1

[15] = tested on: galium (catchweed bedstraw, Galium aparine); experiment: Test A postemergence, galium; settings: Postemergence; for Galium plant response rating: visual injury vs untreated controls after approx. 10 days
Outline: as §2

[16] = 31 g ai/ha, visual injury, approx. 10 days
[17] = 125 g ai/ha, visual injury approx. 10 days
[18] = 31 g ai/ha, visual injury on 0 to 100 scale (0 no effect, 100 complete control), approx. 10 days
[19] = 125 g ai/ha, visual injury approx. 10 days, 0 to 100 scale (0 no effect, 100 complete control)
[20] = 125 g ai/ha, 0 to 100 scale (0 no effect, 100 complete control)
[21] = 500 g ai/ha, 0 to 100 scale (0 no effect, 100 complete control)
[22] = 125 g ai/ha, visual injury, approx. 10 days
[23] = 500 g ai/ha, visual injury approx. 10 days
[24] = 500 g ai/ha, visual injury approx. 10 days, 0 to 100 scale (0 no effect, 100 complete control)

CCC(=O)OCN(c1cc(C2=NOC3(CCCC3)C2)c(C)cc1C)S(=O)(=O)C(F)(F)F [Compound 144]
100: Barnyardgrass plant response rating ([1]; 125 g ai/ha) | Foxtail, Giant plant response rating ([5]; 125 g ai/ha)
40: Plant response rating, Pigweed [12, 20]
60: Plant response rating, Wheat [13, 20] | Plant response rating, Galium [15, 19]
90: Ryegrass, Italian plant response rating ([4]; 125 g ai/ha) | Plant response rating, Foxtail, Giant [5, 16]
20: Plant response rating, Barnyardgrass [1, 16] | Plant response rating, Barnyardgrass [7, 17] | Plant response rating, Pigweed [12, 18]
0: Plant response rating, Kochia (kochia (Bassia scoparia) [2]; [16]) | Plant response rating, Ragweed [3, 16] | Plant response rating, Barnyardgrass ([7]; 31 g ai/ha) | Plant response rating, Ragweed [9, 18] | Plant response rating, Ryegrass, Italian [10, 18] | Plant response rating, Ryegrass, Italian [10, 20] | Plant response rating, Foxtail, Giant [11, 18] | Plant response rating, Wheat [13, 18] | Plant response rating, Corn (corn (Zea mays); [18]) | Plant response rating, Blackgrass ([14]; 31 g ai/ha) | Plant response rating, Blackgrass [14, 17]
30: Kochia plant response rating (kochia (Bassia scoparia) [2]; 125 g ai/ha) | Ragweed plant response rating ([3]; 125 g ai/ha) | Plant response rating, Ragweed [9, 20] | Plant response rating, Foxtail, Giant [11, 19] | Plant response rating, Corn (corn (Zea mays); [19]) | Plant response rating, Galium [15, 18]
70: Plant response rating, Ryegrass, Italian [4, 16] | Plant response rating, Pigweed [6, 16]
10: Plant response rating, Kochia (kochia (Bassia scoparia) [8]; [18]) | Plant response rating, Kochia (kochia (Bassia scoparia) [8]; [19])
50: Pigweed plant response rating ([6]; 125 g ai/ha)

Cc1ccc(=O)n(-c2cc(NS(=O)(=O)C(F)(F)F)c(C)cc2C)n1 [Compound 85]
20: Barnyardgrass plant response rating ([7]; 500 g ai/ha) | Plant response rating, Ragweed [9, 19] | Plant response rating, Pigweed [12, 19]
100: Pigweed plant response rating ([6]; 125 g ai/ha) | Plant response rating, Pigweed ([6]; 500 g ai/ha)
40: Plant response rating, Ryegrass, Italian [10, 19] | Pigweed plant response rating [12, 21]
0: Ragweed plant response rating ([3]; 125 g ai/ha) | Plant response rating, Ragweed ([3]; 500 g ai/ha) | Ryegrass, Italian plant response rating ([4]; 125 g ai/ha) | Plant response rating, Kochia (kochia (Bassia scoparia) [8]; [19]) | Kochia plant response rating (kochia (Bassia scoparia) [8]; [21]) | Plant response rating, Foxtail, Giant [11, 19] | Foxtail, Giant plant response rating [11, 21] | Plant response rating, Wheat [13, 19] | Wheat plant response rating [13, 21] | Plant response rating, Corn (corn (Zea mays); [19]) | Corn plant response rating (corn (Zea mays); [21]) | Plant response rating, Blackgrass [14, 17] | Blackgrass plant response rating ([14]; 500 g ai/ha) | Galium plant response rating [15, 21]
30: Plant response rating, Ryegrass, Italian ([4]; 500 g ai/ha) | Plant response rating, Barnyardgrass [7, 17] | Ragweed plant response rating [9, 21] | Ryegrass, Italian plant response rating [10, 21]
10: Foxtail, Giant plant response rating ([5]; 125 g ai/ha)
90: Plant response rating, Foxtail, Giant ([5]; 500 g ai/ha)
60: Kochia plant response rating (kochia (Bassia scoparia) [2]; 125 g ai/ha) | Plant response rating, Galium [15, 19]
70: Barnyardgrass plant response rating ([1]; 125 g ai/ha) | Plant response rating, Barnyardgrass ([1]; 500 g ai/ha) | Plant response rating, Kochia (kochia (Bassia scoparia) [2]; 500 g ai/ha)

Cc1cc(C)c(N2CCC3(CCCC3)C2=O)cc1NS(=O)(=O)C(F)(F)F [Compound 270]
10: Plant response rating, Kochia (kochia (Bassia scoparia) [8]; [20])
50: Plant response rating, Kochia (kochia (Bassia scoparia) [8]; [24]) | Plant response rating, Corn (corn (Zea mays); [24])
80: Ragweed plant response rating ([3]; 500 g ai/ha) | Plant response rating, Galium [15, 20]
40: Plant response rating, Wheat [13, 20]
30: Plant response rating, Ragweed [9, 20]
100: Plant response rating, Ryegrass, Italian [4, 22] | Ryegrass, Italian plant response rating ([4]; 500 g ai/ha) | Plant response rating, Foxtail, Giant [5, 22] | Foxtail, Giant plant response rating ([5]; 500 g ai/ha) | Pigweed plant response rating ([6]; 500 g ai/ha)
0: Plant response rating, Kochia (kochia (Bassia scoparia) [2]; [22]) | Kochia plant response rating (kochia (Bassia scoparia) [2]; 500 g ai/ha) | Plant response rating, Ragweed [3, 22] | Plant response rating, Barnyardgrass ([7]; 125 g ai/ha) | Plant response rating, Ryegrass, Italian [10, 20] | Plant response rating, Foxtail, Giant [11, 20] | Plant response rating, Corn (corn (Zea mays); [20])
70: Plant response rating, Pigweed [6, 22] | Plant response rating, Barnyardgrass [7, 23] | Plant response rating, Ryegrass, Italian [10, 24] | Plant response rating, Wheat [13, 24] | Plant response rating, Blackgrass [14, 23]
20: Plant response rating, Foxtail, Giant [11, 24] | Plant response rating, Blackgrass ([14]; 125 g ai/ha)
60: Plant response rating, Ragweed [9, 24] | Plant response rating, Pigweed [12, 20]
90: Plant response rating, Barnyardgrass [1, 22] | Barnyardgrass plant response rating ([1]; 500 g ai/ha) | Plant response rating, Pigweed [12, 24] | Plant response rating, Galium [15, 24]

COc1c(Cl)nn(C)c(=O)c1-c1cc(NS(=O)(=O)C(F)(F)F)c(C)cc1C [Compound 64]
20: Plant response rating, Barnyardgrass [7, 17] | Barnyardgrass plant response rating ([7]; 500 g ai/ha) | Plant response rating, Kochia (kochia (Bassia scoparia) [8]; [19]) | Plant response rating, Pigweed [12, 19]
50: Barnyardgrass plant response rating ([1]; 125 g ai/ha) | Plant response rating, Pigweed ([6]; 500 g ai/ha)
30: Pigweed plant response rating [12, 21] | Blackgrass plant response rating ([14]; 500 g ai/ha) | Galium plant response rating [15, 21]
100: Plant response rating, Ryegrass, Italian ([4]; 500 g ai/ha)
90: Plant response rating, Barnyardgrass ([1]; 500 g ai/ha) | Plant response rating, Kochia (kochia (Bassia scoparia) [2]; 500 g ai/ha) | Foxtail, Giant plant response rating ([5]; 125 g ai/ha) | Plant response rating, Foxtail, Giant ([5]; 500 g ai/ha)
70: Ryegrass, Italian plant response rating ([4]; 125 g ai/ha)
60: Kochia plant response rating (kochia (Bassia scoparia) [8]; [21]) | Foxtail, Giant plant response rating [11, 21] | Wheat plant response rating [13, 21]
0: Ragweed plant response rating ([3]; 125 g ai/ha) | Plant response rating, Ragweed [9, 19] | Ragweed plant response rating [9, 21] | Plant response rating, Foxtail, Giant [11, 19] | Plant response rating, Corn (corn (Zea mays); [19]) | Corn plant response rating (corn (Zea mays); [21]) | Plant response rating, Blackgrass [14, 17] | Plant response rating, Galium [15, 19]
40: Kochia plant response rating (kochia (Bassia scoparia) [2]; 125 g ai/ha) | Plant response rating, Ragweed ([3]; 500 g ai/ha) | Pigweed plant response rating ([6]; 125 g ai/ha) | Plant response rating, Ryegrass, Italian [10, 19] | Plant response rating, Wheat [13, 19]
80: Ryegrass, Italian plant response rating [10, 21]
